In BindingDB's records for doi:10.1021/jm00098a013 (Duquesne University, 1992):

Test: Compound was evaluated for the inhibition of Aminoimidazole carboxamide ribonucleotide formyl transferase (AICAR) with (6R) tetrahydrofolate as substrate

IC50: > 95 µM
SMILES: Cc1c2cnc3nc(N)[nH]c(=O)c3c2c(C)n1C
